Data taken from patent US20230200390A1, “SELECTIVE HERBICIDES BASED ON SUBSTITUTED ISOXAZOLIN CARBOXAMIDES AND MEFENPYR-DIETHYL” (BAYER AKTIENGESELLSCHAFT, priority 2020, published 2023).

Assays:
Format in all cases: in vivo
[1] = tested on: spring wheat, TRZAS Triso; test: Tank-mix; post-emergence: crop damage by herbicide with/without safener mefenpyr-diethyl
Description: (§1) Seeds of crops (spring wheat, TRZAS; spring barley, HORVS; maize, ZEAMA) were placed in sandy loam soil in peat pots, covered with soil and cultivated in a greenhouse under good growth conditions. Two to three weeks after sowing, the test plants were treated at the 1 to 3-leaf stage. The herbicide/safener active compound combinations according to the invention, formulated as wettable powders or emulsion concentrates, and, in parallel tests, the correspondingly formulated individual active compounds were sprayed onto the green parts of the plants in various dosages using an amount of water of 300 l/ha (converted).
(§2) The pots were returned under good growing conditions in a glasshouse and a visual assessment of herbicidal effects was made at intervals from 1 to 3 weeks after herbicide application (DAT=days after treatment). Assessment was on a percentage basis in comparison with untreated control plants (0%=no injury, 100%=complete kill).

[2] = tested on: spring barley, HORVS Montoya; test: as above
Description: as §1, §2

[3] = tested on: spring wheat, TRZAS Triso; test: Seed treatment with safener; post-emergence herbicide, crop damage; conditions: 21 DAT; for HER effect + SAF [%] (crop damage) / Reduction [%] / Reduction [Difference]: mefenpyr-diethyl 0.5 g a.i./kg seed; for HER effect [%] (crop damage, herbicide without safener): no safener
Text: (§3) For safener seed treatment trials, sufficient seed amounts of the respective crops (spring wheat (TRZAS); spring barley (HORVS)) were weighed into screw cap glass bottles with a minimum volume trice of the seeds.
(§4) As a first step, specified safeners formulated as wettable powder (WP) or wettable granules (WG) were weighed out for the required dosages (g a.i./kg seed), corresponding to the seed amounts. The safener amounts were mixed with a coloured slurry blind formulation type, prediluted with milk at 3.5% fat rate (25 mgs slurry formulation plus 2 ml milk per 10 grams of seed). A tube roller was used for coating. The solutions were gradually pipetted each on the rotating seeds followed by coating for min. 3 hours until all liquid had been soaked up by the seeds. Thereafter, the coated seeds were put flat on open trays for drying over night at room temperature.
(§5) Treated seeds were then placed into pots (7 cm diameter) on the surface of sandy loam, pressed down, flat covered with additional soil and finally covered with sandy soil, also pressed down, watered, and kept under good growth conditions in a greenhouse, until the plants had reached 2-leaf-stage (BBCH 12).
(§6) At that stage, post-emergence application of the specified herbicides was done on:
(§7) a) pot sets containing plants with safener-coated seeds as described above,
(§8) b) as a reference, pot sets of plants without seed treatment.
(§9) The herbicides were formulated as wettable powder (WP). Equivalent to the spray area, compound amounts were weighed out and diluted related to the water application rate (300 l/ha) to an aqueous suspension plus additive (1 l/ha MERO). Dosage related equivalents were conventionally sprayed on trays with the potted plants.
(§10) After application, the test plants were kept under good growth conditions in a greenhouse.
(§11) Assessment timings were 10 and 21 days after treatment (DAT) with the herbicide, by visual scoring of the crop damage in % (comparison of untreated with treated plants, either sprayed only with herbicide or with herbicide on plants with treated seeds).

[4] = tested on: spring barley, HORVS Montoya; test: as above; conditions: 21 DAT; for HER effect + SAF / Reduction [%] / Reduction [Difference]: mefenpyr-diethyl 0.5 g a.i./kg seed
Text: as §3, §4, §5, §6, §7, §8, §9, §10, §11

[5] = HER 2 g a.i./ha + mefenpyr-diethyl 50 g a.i./ha, 10 DAT
[6] = HER 2 g a.i./ha + mefenpyr-diethyl 50 g a.i./ha, 21 DAT
[7] = HER 32 g a.i./ha post-emergence
[8] = HER 1 g a.i./ha + mefenpyr-diethyl 50 g a.i./ha, 21 DAT
[9] = HER 1 g a.i./ha + mefenpyr-diethyl 50 g a.i./ha, 10 DAT
[10] = HER 16 g a.i./ha post-emergence

COCCOC(=O)C1C=CC(NC(=O)C2(C)CC(c3cc(Cl)cc(C#N)c3)=NO2)C1 (stereo not shown) [Example 1.5]
HER effect + SAF [1, 5]: 0%
Reduction [%] [1, 5]: 100%
Reduction [Difference] [1, 5]: 50
HER effect ([1]; herbicide alone 2 g a.i./ha, 10 DAT): 50%
HER effect + SAF [2, 6]: 0%
Reduction [%] [2, 6]: 100%
Reduction [Difference] [2, 6]: 20
HER effect ([2]; herbicide alone 2 g a.i./ha, 21 DAT): 20%
HER effect + SAF [%] (crop damage) ([3]; HER dose 8 g a.i./ha): 10%
Reduction [%] ([3]; HER dose 8 g a.i./ha): 89%
Reduction [Difference] ([3]; HER dose 8 g a.i./ha): 80
HER effect [%] (crop damage, herbicide without safener) ([3]; HER dose 8 g a.i./ha): 90%
HER effect + SAF [%] (crop damage) ([3]; HER dose 32 g a.i./ha): 30%
Reduction [%] ([3]; HER dose 32 g a.i./ha): 68%
Reduction [Difference] ([3]; HER dose 32 g a.i./ha): 65
HER effect [%] (crop damage, herbicide without safener) ([3]; HER dose 32 g a.i./ha): 95%
HER effect + SAF ([4]; HER 2 g a.i./ha post-emergence): 0%
Reduction [%] ([4]; HER 2 g a.i./ha post-emergence): 100%
Reduction [Difference] ([4]; HER 2 g a.i./ha post-emergence): 20
HER effect + SAF [4, 7]: 60%
Reduction [%] [4, 7]: 25%
Reduction [Difference] [4, 7]: 20
HER effect ([4]; herbicide alone 2 g a.i./ha post-emergence): 20%
HER effect ([4]; herbicide alone 32 g a.i./ha post-emergence): 80%

CC1(C(=O)NC2C=CC(C(=O)O)C2)CC(c2cc(F)cc(F)c2)=NO1 (stereo not shown) [Example 1.36]
HER effect + SAF [1, 8]: 20%
Reduction [%] [1, 8]: 76%
Reduction [Difference] [1, 8]: 65
HER effect ([1]; herbicide alone 1 g a.i./ha, 21 DAT): 85%
HER effect + SAF [2, 9]: 60%
Reduction [%] [2, 9]: 25%
Reduction [Difference] [2, 9]: 20
HER effect ([2]; herbicide alone 1 g a.i./ha, 10 DAT): 80%
HER effect + SAF [%] (crop damage) ([3]; HER dose 1 g a.i./ha): 0%
Reduction [%] ([3]; HER dose 1 g a.i./ha): 100%
Reduction [Difference] ([3]; HER dose 1 g a.i./ha): 85
HER effect [%] (crop damage, herbicide without safener) ([3]; HER dose 1 g a.i./ha): 85%
HER effect + SAF [%] (crop damage) ([3]; HER dose 4 g a.i./ha): 30%
Reduction [%] ([3]; HER dose 4 g a.i./ha): 68%
Reduction [Difference] ([3]; HER dose 4 g a.i./ha): 63
HER effect [%] (crop damage, herbicide without safener) ([3]; HER dose 4 g a.i./ha): 93%
HER effect + SAF [%] (crop damage) ([3]; HER dose 16 g a.i./ha): 50%
Reduction [%] ([3]; HER dose 16 g a.i./ha): 47%
Reduction [Difference] ([3]; HER dose 16 g a.i./ha): 45
HER effect [%] (crop damage, herbicide without safener) ([3]; HER dose 16 g a.i./ha): 95%
HER effect + SAF ([4]; HER 4 g a.i./ha post-emergence): 50%
Reduction [%] ([4]; HER 4 g a.i./ha post-emergence): 46%
Reduction [Difference] ([4]; HER 4 g a.i./ha post-emergence): 43
HER effect + SAF [4, 10]: 70%
Reduction [%] [4, 10]: 26%
Reduction [Difference] [4, 10]: 25
HER effect ([4]; herbicide alone 4 g a.i./ha post-emergence): 93%
HER effect ([4]; herbicide alone 16 g a.i./ha post-emergence): 95%
